Measured values as given in patent publication US20240084354A1, “MEANS AND METHODS FOR REGULATING INTRACELLULAR TRAFFICKING OF SECRETORY OR CELL MEMBRANE-ANCHORED PROTEINS OF INTEREST” (HONING BIOSCIENCES, priority 2020, published 2024).
“Also recorded” adds a separate entry of the source.

What was measured:
Jurkat cells = assay: Flow cytometry of GFP fluorescence in transduced Jurkat cells; assay type: cell-based
Experimental: Transduced cells either received no treatment or were treated with 40 μM of biotin for 15 minutes, 60-75 minutes or overnight (0/N).
The RPMI medium was supplemented with 14 μg/mL of avidin to chelate the existing biotin present in the medium.
(§1) After incubation with biotin, the cells were immediately transfer on ice, to inhibit or slow down the traffic of the cargo, followed by centrifugation (300 g, 4° C., 5 minutes), washed twice in cold 1×PBS (300 g, 4° C., 5 minutes) and incubated with live/dead fixable staining (20 minutes, on ice; Thermofisher). The cells were then washed twice in cold PBS (300 g, 4° C., 5 minutes) or FACS buffer (1×PBS, 1% BSA, 0.05% sodium azide, 1 mL EDTA 0.5 M, filtered and kept at 4° C.) and, when not analyzed immediately, the cells were fixed in 3% PFA-1×PBS (10 minutes, RT) and washed twice in 1×PBS.
Transduced cells either received no treatment or were treated with 40 μM of biotin for 6 hours.
Transduction of HEK293FT and Jurkat cells were done using the same volume v/v of particles for each construct increasingly.
The expression of the cytokine was evaluated by measuring GFP using flow cytometry, three days later for HEK293FT and more than six days later for Jurkat cells. […]
For both types of cells, the expression of the cytokine was evaluated by measuring GFP using flow cytometry, 3 days later for HEK293FT and more than 6 days later for Jurkat cells. […]

[1] = tested on: Primary CD8+ T or CD4/CD8+ T cells; assay: Flow cytometry of GFP fluorescence in transduced primary T cells; assay type: cell-based, human
Experimental: T cells were isolated from leukocyte reduction system chamber (LRSC) from blood of healthy donors by negative selection using the EasySep Direct Human T cell isolation kit (STEM cells) or MACSxpress LRSC Pan T Cell Isolation Kit, human (Miltenyi) according to the manufacturer's instructions.
Primary CD8^+ T or CD4/CD8^+ T cells were plated into culture plates and transduced with said lentiviral particle at a MOI between 1 and 5 for 3 days.
Primary CD8^+ T or CD4/CD8^+ T cells were plated into culture plates for Flow cytometry assay.
To prevent cytokines released due to the possible presence of biotin in TexMacs buffer, 1 μg/mL of avidin was added to chelate biotin, starting from the day of transduction and following days of cell culture. […]
as §1

HeLa cells [2] = assay: Immunofluorescence of transduced HeLa cells (GFP/Cherry staining), with or without biotin; assay type: cell-based; details: 40 μM biotin
Experimental: HeLa cells were plated on a cell culture plate and transduced with said lentiviral particle at a MOI between 1 and 5 for 2 days.
Transduced HeLa cells were plated on coverslip for immunofluorescence assay.
Transduced cells either received no treatment or were treated with 40 μM of biotin.
Cells for immunofluorescence assay were either treated or not with 40 μM or higher of biotin for 15 minutes, 75 minutes or 16 hours (steady-state).
Cells coated onto coverslips were washed once in 1×PBS buffer, fixed in 3% of paraformaldehyde (PFA) for 10-15 minutes at room temperature, then washed twice and alternatively incubated with 50 mM of NH4Cl-1×PBS for 5 minutes at room temperature to quench free aldehydes. The cells were then permeabilized using a solution of PBS containing 0.5% Bovine Serum Albumin (BSA) and 0.05% saponin (Saponin, Sigma-Aldrich) for 15 minutes at room temperature. The coverslips were mounted in Mowiol supplemented with DAPI (4′,6-diamidino-2-phenylindole) for DNA staining.

HeLa cells [3] = assay: Western blot (GFP revelation) of cell medium and cell extract of transduced HeLa cells; assay type: cell-based; details: 40 μM biotin, 60 minutes or O/N
Experimental: Cells for western blotting were treated either treated or not with 40 μM biotin or higher for 60 minutes or over-night (0/N).
After biotin treatment, the supernatant was recovered and centrifuged for removal of the detached or dead cells at 300 g, 4° C., for 5-10 minutes and kept on ice. While the cells (defined hereafter as pellet) were incubated with protein loading buffer 1×(5 mM Tris-HCl, pH 7.0, 30 mM ethylenediaminetetra acid (EDTA), pH 8.0; 0.01% bromophenol blue, 5% glycerol) for 5 minutes at room temperature, scratched and transfer to a new tube followed by denaturation at 95-100° C. for 10-20 minutes. The supernatant (from adherent or suspension cells) were incubated with StrataClean Resin (Agilent) to collect and concentrate protein present in the supernatant, for at least 2 hours at 4° C. with orbital agitation. […] Cytokines were detected using monoclonal anti-GFP (1/1000; Roche) in 5% skim milk in 0.1% Tween-20 PBS for 1 hour at room temperature or overnight (0/N) at 4° C., followed by the respective horseradish peroxidase (HRP) conjugated secondary polyclonal antibody (1/15000) in 5% skim milk in 0.1% Tween-20 PBS for 1 hour at room temperature. […]

[4] = tested on: HEK blue IL-2 reporter cell line; assay: Cytokine activity of medium of transduced HeLa cells on reporter cell line HEK blue IL-2; assay type: cell-based; details: no biotin
Experimental: Cells were treated with 40 μM biotin for 0 minute, 15 minutes, 60 minutes, 90 minutes, 120 minutes or 4320 minutes (=72 hours).
After treatment of the cells, the cell medium (1500 μL) was collected and centrifuged (300 g, 4° C., 5-10 minutes) to remove dead cells.
The cell medium of the RUSH-transduced cells was added into a cell culture 96-well plate (flat bottom) at a dilution 1/80 to 1/100 followed by the platting of HEK-Blue cells at approximately 50 000 cells/well. On the next day (after approximately 24 hours), 20 μL of the supernatant of these cells was transferred to a new plate and 180 μL of QUANTI-Blue substrate was added and incubated at 37° C. and 5% of C02 for 1-3 hours. The absorbance was then measured at 620 nm. The response ratio of the cytokines was determined by dividing the value of absorbance of the treated cells by non-treated cells. The values were them normalized to WT cells line.

CTLL-2 NFκB cells = assay: IL-2-induced proliferation of CTLL-2 NFκB cells; assay type: cell-based; details: medium of transduced HeLa cells
Experimental: The relative proliferation and NFκB response measured by luminescence in CTLL2 NFκB was determined as described by Mock et al. (2020. Sci Rep. 10(1):3234). Briefly, CTLL2 NFκB were starved for about 24 hours, i.e., incubated for 24 hours without IL-2 to reduce the background due to the presence of IL-2 in the medium. After starvation, the cells (approximately 50 000 cells/well) in a cell culture 96-well plate (flat bottom) were incubated with the supernatant of the transduced cells either non-treated or treated with biotin diluted at 1/80 to a final volume of 200 μL. The cells were incubated for 72 hours at 37° C. and 5% of C02.
For CTLL-2 proliferation, CellTiter 96 Aqueous One Solution (Promega) was used according to the manufacturer's instructions. Briefly, 100 μL of the cells medium were removed and 20 μL of CellTiter 96 Aqueous One Solution (Promega) were added and incubated at least for 1 hours at 37° C. and 5% of CO2 before reading the absorbance at 490 nm. The relative proliferation or luminescence was determined by dividing the absorbance of treated cells by non-treated cells.

“CCL5-SBP-eGFPhibit: RUSH system with CCL5 fused to SBP and to eGFP containing HiBit tag (SEQ ID NO: 604) (VSGWRLFKKIS; HiBit tag)” was tested, and the “GFP upon addition of biotin within 6 hours (flow cytometry)” value (Jurkat cells; 40 μM biotin, 6 hours) was “showed a decrease in GFP-expressing cells”, the “Intracellular GFP expression without biotin treatment (flow cytometry)” value (Jurkat cells; no biotin) was “showed a proper intracellular GFP expression” and the “GFP-expressing cells upon addition of biotin” value ([1]; 40 μM biotin) was “decrease of GFP-expressing cells”. The “Efficiency of transduction / T cells expressing the cytokine” value ([1]; absence of biotin) was 6%.

“SPCCL5-IL-2-SBP-eGFP: RUSH system with Interleukin-2 fused to SBP and eGFP using the signal peptide of CCL5 (SEQ ID NO: 603) (MKVSAAALAVILIATALCAPASA; Signal peptide of CCL5)” was tested, and the “Traffic and secretion of the cytokine upon biotin addition (immunofluorescence)” value (HeLa cells [2]) was “After 15 minutes with biotin treatment, the cytokine was localized in the Golgi; also recorded: at 75 minutes, a high percentage of the cytokine still remained in the Golgi; also recorded: At 4 hours, most of the cytokine had been secreted”, the “Cytokine secretion in cell medium upon biotin addition (western blot)” value (HeLa cells [3]) was “the highest secretion was observed after O/N with biotin” and the “Response of the reporter cell line in the absence of biotin” value [4] was “induced a small response by the reporter cell line”. For the same substance, the “CTLL-2-NFκB cell proliferation after 4320 minutes of biotin” value (CTLL-2 NFκB cells; biotin 4320 minutes) was “seemed to better sustain cell activation”, the “CTLL-2-NFκB cell proliferation, biotin for more than 60 minutes” value (CTLL-2 NFκB cells; biotin more than 60 minutes) was “a significant increase in cell proliferation was observed” and the “CTLL-2-NFκB cell proliferation in absence of biotin” value (CTLL-2 NFκB cells; no biotin) was “proliferated”.
